In patent publication US12668591B2, “1,2,4-oxadiazole derivatives as histone deacetylase 6 inhibitors” (Oryzon Genomics, S.A., priority 2017, dated 2026):

Assays:
HDAC6 [1] = molecular target: T1, HDAC6 (Homo sapiens, UniProt Q9UBN7); assay: HDAC6 enzyme inhibition assay (fluorimetric); type: biochemical; conditions: 1 μM compound; 3 h pre-incubation; recombinant full length HDAC6; read-out: HDAC6 % inh @ 1 μM
T1 sequence (Q9UBN7 1-1215): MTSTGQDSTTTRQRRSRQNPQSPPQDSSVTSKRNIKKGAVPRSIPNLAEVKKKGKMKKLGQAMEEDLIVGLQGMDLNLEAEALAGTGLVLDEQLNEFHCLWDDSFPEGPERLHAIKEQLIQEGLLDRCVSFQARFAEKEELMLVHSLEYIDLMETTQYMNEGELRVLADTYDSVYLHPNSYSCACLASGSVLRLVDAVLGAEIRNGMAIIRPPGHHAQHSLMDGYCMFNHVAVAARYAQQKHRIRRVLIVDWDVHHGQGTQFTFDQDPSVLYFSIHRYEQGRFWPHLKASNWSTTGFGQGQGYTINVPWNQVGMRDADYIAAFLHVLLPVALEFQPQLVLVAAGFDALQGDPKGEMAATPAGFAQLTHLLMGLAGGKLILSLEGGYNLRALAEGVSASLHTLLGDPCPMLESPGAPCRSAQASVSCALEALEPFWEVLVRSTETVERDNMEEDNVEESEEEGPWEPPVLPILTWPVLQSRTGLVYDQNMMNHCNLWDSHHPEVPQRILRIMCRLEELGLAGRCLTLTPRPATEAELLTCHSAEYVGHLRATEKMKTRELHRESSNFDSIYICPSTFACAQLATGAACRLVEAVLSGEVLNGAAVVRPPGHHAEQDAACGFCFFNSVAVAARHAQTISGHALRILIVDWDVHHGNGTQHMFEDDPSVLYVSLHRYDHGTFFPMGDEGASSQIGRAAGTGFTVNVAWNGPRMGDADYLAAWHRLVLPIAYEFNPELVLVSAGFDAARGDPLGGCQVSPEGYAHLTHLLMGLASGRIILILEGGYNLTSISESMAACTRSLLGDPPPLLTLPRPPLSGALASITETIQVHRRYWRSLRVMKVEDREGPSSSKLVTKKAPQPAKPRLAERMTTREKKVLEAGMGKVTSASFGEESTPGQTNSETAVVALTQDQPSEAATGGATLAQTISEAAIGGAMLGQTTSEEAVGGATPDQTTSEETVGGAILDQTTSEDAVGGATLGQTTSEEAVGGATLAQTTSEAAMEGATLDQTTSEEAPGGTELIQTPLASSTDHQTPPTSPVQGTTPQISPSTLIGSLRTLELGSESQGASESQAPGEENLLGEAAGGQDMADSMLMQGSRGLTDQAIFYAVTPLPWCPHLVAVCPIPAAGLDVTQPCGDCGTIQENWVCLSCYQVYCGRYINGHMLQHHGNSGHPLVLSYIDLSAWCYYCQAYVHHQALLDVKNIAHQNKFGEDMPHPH
Experimental: HDAC6 and HDAC2 Enzyme Inhibition Assay
A fluorimetric assay was used for testing the activity of compounds of the invention against HDAC6 and HDAC2.
The compounds were dissolved in DMSO. Serial dilutions were prepared in DMSO and then diluted 1:10 in HDAC assay buffer (Tris-buffered solution, BPS Bioscience Inc. #50031). 5 μl of the compound dilution was added to a 50 μl reaction so that the final concentration of DMSO was 1%.
The compounds were pre-incubated in duplicate at RT for 3 hours in a mixture containing HDAC assay buffer, 5 μg BSA and recombinant HDAC enzyme (see table above). The enzymatic reactions were initiated by the addition of a fluorogenic, acetylated peptide substrate based on a histone protein (BPS Bioscience Inc. #50037) to a final concentration of 10 μM. The enzymatic reaction proceeded for 30 minutes at 37° C. Then, 50 μl of 2× HDAC Developer, which contains peptidase activity and Trichostatin A (BPS Bioscience Inc. #50030) was added and the plate was incubated at RT for an additional 15 minutes. Fluorescence intensity was measured at an excitation of 360 nm and an emission of 460 nm using a Tecan Infinite M1000 microplate reader.
Trichostatin A (TSA, Selleckchem #S1045) was used as reference inhibitor.
The fluorescent intensity data were analyzed using the computer software Graphpad Prism (GraphPad Software, San Diego, CA). 100% activity was defined as the fluorescent intensity (Ft) in the absence of the compound. 0% activity was defined as the fluorescent intensity (Fb) in the absence of the enzyme. The percent activity in the presence of each compound was calculated according to the following equation: % activity=(F−Fb)/(Ft−Fb), where F=the fluorescent intensity in the presence of the compound.

HDAC6 [2] = molecular target: T1, HDAC6; assay: In vitro cell-based assay: acetylation levels of Alpha-Tubulin by Western Blot in MOLP8 cells; design: endogenous in cells; host or cells: MOLP8; conditions: 18 h, acetyl-alpha-tubulin relative band intensity, ACY-1215 1 μM = 100%
Experimental: In Vitro Cell-Based Assay
In order to determine the cellular activity of HDAC6 upon treatment with HDAC6 inhibitors, acetylation levels of Alpha-Tubulin (a HDAC6-specific substrate) were measured by Western Blot. For this, MOLP8 cells were seeded in 6-well plates at a cell density of 500.000 cells/well and treated with the selected compounds at 5 and 1 μM for 18 h at 37° C. and 5% CO2 in a humidified tissue culture incubator. Consecutively, cell pellets were collected and whole protein extracts prepared using RIPA buffer (SIGMA) supplemented with 1× protease inhibitors (cOmplete mini, Roche). Protein concentration was determined with Bradford's reagent (Bio-Rad) as per manufacturer's instructions, and 7 μg of total protein were loaded into pre-cast 10% NuPAGE Novex gels (Life Technologies). Gels were run in […] (Life Technologies) and proteins were transferred using the iBlot 2 Dry Blotting System (Life Technologies). Blots were subsequently rinsed in distilled water and stained with Ponceau S solution (SIGMA). Blots were then washed in distilled water to remove Ponceau excess and scanned with the Epson Perfection V600 Photo professional Scanner. After this, blots were de-stained and blocked in 5% milk/PBS-Tween 0.1% for 1 h at room temperature followed by incubation with anti-Acetyl-alpha Tubulin (SIGMA cat. #T7451, 1:10.000 dilution) and anti-Beta-actin (SIGMA, cat. #A5316, 1:2.000 dilution) primary antibodies in 5% milk/PBS-T 0.1%, overnight at 4° C. on a shaking platform. After incubation, blots were washed 3 times for 5 minutes each in PBS-Tween 0.5% and incubated with anti-mouse HRP-conjugated secondary antibody (Jackson Immuno Research, cat. #115-035-068) at 1:8.000 in 5% milk/PBS-Tween 0.1%, 1 h at room temperature on a shaking platform. After 3 washes of 5 minutes each with PBS-Tween 0.5% and 1 wash in PBS 1×, blots were developed with ECL Plus (GE Healthcare) and the chemiluminescent reaction imaged with the G:Box Chemi XRQ (Syngene) imaging system. WB and Ponceau images were analysed with ImageJ software, WB band intensities normalized by either total protein or Beta-actin content and made relative to ACY-1215 1 μM (equivalent to 100%). ACY-1215 is a HDAC6 inhibitor, and is also known as ricolinostat, with chemical name 2-(diphenylamino)-N-[7-(hydroxyamino)-7-oxoheptyl]-5-pyrimidinecarboxamide. Percentage of band intensities was classified as follows: […]

SMILES	inhibition at 1 µM (HDAC6 [1])	Cellular activity @1 uM (HDAC6 [2])	Cellular activity @5 uM (HDAC6 [2])
CCCCn1ccc2cc(-c3cc(-c4noc(C(F)(F)F)n4)ccn3)ncc21 [Example 1, 3-(2-(1-Butyl-1H-pyrrolo[2,3-c]pyridin-5-yl)pyridin-4-yl)-5-(trifluoromethyl)-1,2,4-oxadiazole]	79%	− (<50)	+ (50-150)
FC(F)(F)c1nc(-c2ccnc(-c3cc4c(CN5CCCCC5)n[nH]c4cn3)c2)no1 [Example 1aa, 3-(2-(3-(Piperidin-1-ylmethyl)-1H-pyrazolo[3,4-c]pyridin-5-yl)pyridin-4-yl)-5-(trifluoromethyl)-1,2,4-oxadiazole]	92%	+ (50-150)	+ (50-150)
CCCCn1c(C(=O)N(C)C)cc2cc(-c3cc(-c4noc(C(F)(F)F)n4)ccn3)ncc21 [Example 1b, 1-Butyl-N,N-dimethyl-5-(4-(5-(trifluoromethyl)-1,2,4-oxadiazol-3-yl)pyridin-2-yl)-1H-pyrrolo[2,3-c]pyridine-2-carboxamide]	84%	+ (50-150)	++ (150-300)
CCCCn1c(C(=O)NCC)cc2cc(-c3cc(-c4noc(C(F)(F)F)n4)ccn3)ncc21 [Example 1d, 1-Butyl-N-ethyl-5-(4-(5-(trifluoromethyl)-1,2,4-oxadiazol-3-yl)pyridin-2-yl)-1H-pyrrolo[2,3-c]pyridine-2-carboxamide]	78%	+ (50-150)	++ (150-300)
CCCn1cc(CN2CCOCC2)c2cc(-c3cc(-c4noc(C(F)(F)F)n4)ccn3)ncc21 [Example 1h, 4-((1-Propyl-5-(4-(5-(trifluoromethyl)-1,2,4-oxadiazol-3-yl)pyridin-2-yl)-1H-pyrrolo[2,3-c]pyridin-3-yl)methyl)morpholine]	96%	+ (50-150)	++ (150-300)
CCCCN(C(=O)CCOC)c1ccc(-c2cc(-c3noc(C(F)(F)F)n3)ccn2)nc1 [Example 1i, N-Butyl-3-methoxy-N-(4′-(5-(trifluoromethyl)-1,2,4-oxadiazol-3-yl)-[2,2′-bipyridin]-5-yl)propanamide]	–	− (<50)	+ (50-150)
CN(CCCN1CCC(F)(F)CC1)c1ccc(-c2cc(-c3noc(C(F)(F)F)n3)ccn2)nc1 [Example 1l, N-(3-(4,4-Difluoropiperidin-1-yl)propyl)-N-methyl-4′-(5-(trifluoromethyl)-1,2,4-oxadiazol-3-yl)-[2,2′-bipyridin]-5-amine]	–	− (<50)	+ (50-150)
CCN(CC)CCCN(C)c1ccc(-c2cc(-c3noc(C(F)(F)F)n3)ccn2)nc1 [Example 1n, N^1,N^1-Diethyl-N^3-methyl-N^3-(4′-(5-(trifluoromethyl)-1,2,4-oxadiazol-3-yl)-2,2′-bipyridin-5-yl)propane-1,3-diamine]	–	− (<50)	+ (50-150)
CCN(CCCOc1ccc(-c2cc(-c3noc(C(F)(F)F)n3)ccn2)nc1)CCc1ccccc1 [Example 1p, N-Ethyl-N-phenethyl-3-((4′-(5-(trifluoromethyl)-1,2,4-oxadiazol-3-yl)-[2,2′-bipyridin]-5-yl)oxy)propan-1-amine]	–	− (<50)	++ (150-300)
FC1(F)CCN(CCOc2ccnc(-c3cc(-c4noc(C(F)(F)F)n4)ccn3)c2)CC1 [Example 1s, 3-(4′-(2-(4,4-Difluoropiperidin-1-yl)ethoxy)-[2,2′-bipyridin]-4-yl)-5-(trifluoromethyl)-1,2,4-oxadiazole]	–	− (<50)	+ (50-150)
CNCCCOc1ccc(-c2cc(-c3noc(C(F)(F)F)n3)ccn2)nc1 [Example 2, N-Methyl-3-((4′-(5-(trifluoromethyl)-1,2,4-oxadiazol-3-yl)-[2,2′-bipyridin]-5-yl)oxy)propan-1-amine]	–	− (<50)	+ (50-150)
FC(F)(F)c1nc(-c2ccnc(-n3ncc4cccnc43)c2)no1 [Example 6, 3-(2-(1H-Pyrazolo[3,4-b]pyridin-1-yl)pyridin-4-yl)-5-(trifluoromethyl)-1,2,4-oxadiazole]	–	+ (50-150)	+ (50-150)
CN(C)CCCOc1ccc(-c2cc(-c3noc(C(F)(F)F)n3)ccn2)nc1 [Example 7, N,N-Dimethyl-3-((4′-(5-(trifluoromethyl)-1,2,4-oxadiazol-3-yl)-[2,2′-bipyridin]-5-yl)oxy)propan-1-amine]	–	− (<50)	+ (50-150)
Cn1nc(-c2cc(-c3noc(C(F)(F)F)n3)ccn2)c2ncccc21 [Example 7a, 3-(2-(1-Methyl-1H-pyrazolo[4,3-b]pyridin-3-yl)pyridin-4-yl)-5-(trifluoromethyl)-1,2,4-oxadiazole]	–	+ (50-150)	++ (150-300)
